# Measurements: paper PMC12303080, “Diverse actions of 15 structurally unrelated mitochondrial uncouplers in cells and mice” (Molecular Metabolism, 2025)
# Read-outs that look alike come from different tables or passages of the source.
# What was measured:
# CHO–K1 cells [1] = assay: OCR in the absence or presence of oligomycin (Supplementary Fig. 6); type: cell-based, Cricetulus griseus; conditions: 1 μM oligomycin; for Effect of oligomycin on uncoupler-stimulated OCR: uncoupler at lowest concentration yielding MaxOCR
# Method: ATP synthase is the major conduit through which protons re-enter the mitochondrial matrix. Thus, we sought to investigate whether the selected uncouplers could stimulate oxygen consumption in the presence of the ATP synthase inhibitor oligomycin.
# Supplementary Figure 6. […] At ~24 minutes, 1 μM of oligomycin or vehicle was injected, followed by the injection of the indicated uncoupler or vehicle at ~44 minutes, and 0.5 μM Rotenone / Antimycin A at ~88 minutes.
# CHO–K1 cells [2] = assay: Seahorse XF-96 OCR dose response of 15 uncouplers (Figure 2); type: cell-based, Cricetulus griseus; conditions: CHO–K1; for MaxOCR: 0.32–200 μM, first 24 min post injection; for EC50: mean OCR (% basal) over first 24 min post injection, ± standard error, four-parameter fit, read-out: EC50 (increase of OCR); for MaxOCR lower than that seen with BAM15: Figure 2; for Concentration range with sustained enhanced OCR (OCR ≥ 150% basal): tested 0.32–200 μM
# Method: (§1) Stock solutions of the uncouplers and/or Rotenone/Antimycin A were diluted in Seahorse media to give the final concentration indicated in Figure 1, Figure 2, Figure 3 with 0.4% (v/v) DMSO in wells.
# [3] = Drug exposure / pharmacokinetics after oral gavage; conditions: male, C57BL/6J, mouse, plasma, 10 mg/kg
# Method: Standards were prepared by spiking known concentrations (0.1, 1, 10, 100 and 1000 ng) of the uncoupler into whole blood prior to extraction. Plasma was obtained by centrifugation at 2000×g for 10 min at 4 °C. Seven microlitres (7 μL) of plasma was precipitated in 100 μL of 90% (v/v) acetonitrile and 10% (v/v) methanol. The resulting solution was vortexed for 5 s and then centrifuged at 21,130×g for 10 min at 4 °C. The supernatant was collected in auto-sampler vials for mass spectrometry.
# Plasma concentration of mitochondrial uncouplers at indicated timepoints was determined by LC-MS/MS. Error bars show SEM, n = 3 per mitochondrial uncoupler.
# db/db mice = assay: Four-week treatment by admixture in chow, metabolic phenotyping; conditions: 4 weeks; for Body weight / weight gain vs db/db controls: 0.15% BAM15, 0.02% OPC-163493, 0.015% and 0.03% ES9, NTZ and NEN both doses; for Body weight, food intake, or metabolic tissue weights vs control: 0.25% NEN, 0.2% NTZ, 0.01% and 0.02% OPC-163493; for Blood glucose, HbA1c, glucose tolerance vs control / Overall metabolic phenotype vs db/db control (Figure 8, words): NEN both doses; for Blood glucose, HbA1c, glucose tolerance vs control: 0.01% OPC, 0.015% ES9, 0.2% NTZ; for Overall metabolic phenotype vs db/db control (Figure 8, words): OPC-163493 both doses, NTZ 0.2%; for Liver mass vs db/db control: both doses of BAM15, low dose NEN; for Daily food intake: both doses of BAM15, low dose of NEN, high dose of NTZ
# Method: Body weight and glucose tolerance of male db/+ and db/db mice was assessed at 8–9 weeks of age to obtain baseline measurements. Db/+ were used as lean metabolically healthy controls and given ad libitum access to chow diet. Db/db mice were stratified into 12 groups using R (V4.4.0).
# Mice were on treatment for a period of four weeks, during which body weight and food intake were measured daily. […] To counter this, food traps were placed beneath hoppers and leftover food in both the traps and hoppers was weighed daily. HbA1c was measured weekly. At the end of the treatment period, a glucose tolerance test was conducted, with fed and fasted bloods collected. At termination, blood was collected via cardiac puncture under isoflurane anaesthesia. Mice were euthanised by cervical dislocation and harvested tissues were flash-frozen in liquid nitrogen and stored at −80 °C.
# Mice were fasted for 6 h and then received intraperitoneal injections of 20% (w/v) dextrose at a dose of 1 g/kg lean body mass. Blood glucose (BG) was measured at the time of fasting (random-fed BG) and then again prior to the commencement of the GTT following the 6-hour daytime fast (fasted BG). […] The rate of glucose clearance was measured using the trapezoidal method for calculation of area under the curve.
# HbA1c was measured once weekly using an A1cNow + Portable HbA1c Test Kit. […] HbA1c was measured in the random-fed state.
# A glucose tolerance test was conducted at the end of the treatment period, with random fed and 6-hour fasted bloods collected. Blood was collected in heparin tubes and kept on ice prior to centrifugation at 2000×g for 10 min at 4 °C to extract plasma. Plasma insulin concentration was determined using the Crystal Chem Ultra-Sensitive Mouse Insulin ELISA kit, according to manufacturers' instructions for the high range (1–64 ng/mL) assay.
# [4] = tested on: Zucker diabetic fatty rats, Akita mice, and Otsuka Long-Evans Tokushima Fatty rats; parameters: method as in PMID 31092829; conditions: decreased HbA1c and lowered fasting blood glucose; cited from earlier work
# rats [5] = tested on: rats; parameters: method as in PMID 3889119; conditions: cited from earlier work
# [6] = tested on: CDAA/c mouse model of NASH; parameters: method as in earlier work; conditions: cited from earlier work
# SARS-CoV-2 = tested on: SARS-CoV-2; parameters: method as in PMID 35237748; conditions: two 300 mg extended release tablets; placebo […]; cited from earlier work
# rats [7] = assay: NTZ toxicology study in rats (literature); type: in vivo; conditions: worked out from rat dose
# HeLa cells = conditions: 0.5–50 μM
# Method: as §1
# (§2) The dashed line indicates basal respiration, defined as the mean OCR over the first 24 minutes of the assay. Error bars show SEM, n = 3 per condition from three separate experiments.
# HEK-293T cells = conditions: HEK293T; 0.5–50 μM
# Method: as §1, §2
# CHO–K1 cells [8] = conditions: 0.5–50 μM, BAM15 at 5 μM, FCCP at 1 μM
# Method: as §1
# RAW 264.7 cells = conditions: 0.5–50 μM
# Method: as §1, §2
# [9] = in vivo; cited from earlier work
# rat hepatocytes = tested on: rat hepatocytes; parameters: method as in PMID 15037196, PMID 8726330; conditions: cited from earlier work
# [10] = Terminal plasma drug concentration by LC-MS/MS; type: in vivo; conditions: db/db mice, study endpoint; TIZ row: mice fed 0.2% NTZ
# Method: LC-MS/MS was performed using a Shimadzu Prominence LCMS-8030 as previously described.
# Figure 7 Plasma drug concentration and markers of tissue damage in db/db mice at study endpoint. Plasma was collected via cardiac puncture at time of euthanasia. A–E) Terminal plasma drug concentration was measured by LC-MS/MS. F–I) Terminal plasma concentration of liver function indicators (ALT, AST and GLDH) and kidney function indicator (urea). Graphs show mean ± SEM, n = 6–9 per group for plasma drug concentration measurement. Due to the limited volume of samples, not all liver and kidney function tests could be performed for all mice.
# isolated rat hepatocytes = tested on: isolated rat hepatocytes; parameters: method as in PMID 12150871, PMID 31297293; conditions: read-out: EC50, inhibiting oxygen consumption; cited from earlier work
# [11] = Cricetulus griseus, CHO-K1, 0.4 h
compound,measurement,setting,value
"FC(F)(F)c1nc2c(Cl)c(Cl)c(Cl)c(Cl)c2[nH]1 [TTFB, 4,5,6,7-Tetrachloro-2-trifluoromethylbenzimidazole]",Effect of oligomycin on uncoupler-stimulated OCR,CHO–K1 cells [1],largely unaffected by the presence of oligomycin
same,MaxOCR,CHO–K1 cells [2],280 % of basal
same,Concentration inducing decline in OCR to sub-basal levels,CHO–K1 cells [2]; first 24 min,200 µM
same,EC50,CHO–K1 cells [2]; [11],0.52 µM
"Cc1sc(-c2ccc(C(F)(F)F)cc2)nc1-c1nn[nH]c1C#N [OPC-163493, 4-(5-methyl-2-(4-(trifluoromethyl)phenyl)thiazol-4-yl)-1H-1,2,3-triazole-5-carbonitrile]",Cmax,[3],30.9 µM
same,Body weight / weight gain vs db/db controls,db/db mice,non-significant trend for lower body weight
same,"Body weight, food intake, or metabolic tissue weights vs control",db/db mice,not significantly different
same,"Blood glucose, HbA1c, glucose tolerance vs control",db/db mice,did not have significantly lower random-fed or 6-hour fasted blood glucose
same,"Overall metabolic phenotype vs db/db control (Figure 8, words)",db/db mice,No statistically significant changes
same,Doses with significant anti-diabetic effects (as low as),[4],≥ 2 mg/kg/day
same,Effect of oligomycin on uncoupler-stimulated OCR,CHO–K1 cells [1],largely unaffected by the presence of oligomycin
same,Concentration giving max efficacy / MaxOCR,CHO–K1 cells [2],10 µM
same,MaxOCR lower than that seen with BAM15,CHO–K1 cells [2],~22%
same,EC50,CHO–K1 cells [2],1 µM
same,EC50,CHO–K1 cells [2]; [11],1.01 ± 1.2 µM
"COc1cc(C(=O)OCC=C(C)C)nc2c(OCC=C(C)C)cccc12 [Ppc-1, Polysphondylium pseudo-candidum-1]",OCR at 31.6 μM,CHO–K1 cells [2],~130 % basal
same,Concentration inducing decline in OCR to sub-basal levels,CHO–K1 cells [2]; after ∼40 min of treatment,over 31.6 μM
same,EC50,CHO–K1 cells [2]; [11],13.5 ± 7.14 µM
"CC(=O)Oc1ccccc1C(=O)Nc1ncc([N+](=O)[O-])s1 [NTZ, Nitazoxanide]",Body weight / weight gain vs db/db controls,db/db mice,little impact on body weight
same,"Body weight, food intake, or metabolic tissue weights vs control",db/db mice,not significantly different
same,Gonadal fat less than control group,db/db mice; 0.4% in chow,26%
same,Post-treatment GTT AUC lower than control group,db/db mice; 0.4% in chow,~29%
same,"Blood glucose, HbA1c, glucose tolerance vs control",db/db mice,did not have significantly lower random-fed or 6-hour fasted blood glucose
same,"Overall metabolic phenotype vs db/db control (Figure 8, words)",db/db mice,no statistically significant phenotype
same,Liver mass vs db/db control,db/db mice; high dose NTZ,statistically decreased liver mass
same,Daily food intake,db/db mice,restored normal food intake
same,HbA1c,"db/db mice; both doses of BAM15, printed 0.3% ES9, 0.4% NTZ",lowered HbA1c levels
same,Fasting and random fed blood glucose,"db/db mice; either dose of BAM15, high dose ES9, high dose NTZ",partial efficacy
same,Increase of liver cholesterol concentration vs db/db control,db/db mice; high dose NTZ (0.4%),~1.7 fold
same,Increase of liver cholesterol concentration vs db/db control,db/db mice; low dose NTZ (0.2%),~1.5 fold
same,"Doses with increased salivation and lethargy, increased liver and spleen size",rats [5],≥ 450 mg/kg/day
same,Decrease in liver fibrosis,[6]; 100 mg/kg/day,32%
same,Decrease in liver fibrosis,[6]; co-administered with Elafibranor,60%
same,Patients progressed to severe disease,SARS-CoV-2,0.5%
same,Mouse equivalent dose of the rat adverse effect dose,rats [7],~900 mg/kg/day
same,EC50,CHO–K1 cells [2]; [11],2.32 ± 0.46 µM
"N#CC(C#N)=NNc1ccc(OC(F)(F)F)cc1 [FCCP, Carbonyl cyanide p-trifluoromethoxyphenylhydrazone]",Stimulation of OCR,HeLa cells,failed to stimulate OCR above basal levels
same,Stimulation of OCR,HEK-293T cells,failed to stimulate OCR above basal levels
same,MaxOCR,CHO–K1 cells [8],~260 % basal
same,Stimulation of OCR,RAW 264.7 cells,failed to stimulate OCR above basal levels
same,Effect of oligomycin on uncoupler-stimulated OCR,CHO–K1 cells [1],largely unaffected by the presence of oligomycin
same,MaxOCR,CHO–K1 cells [2],260 % of basal
same,EC50,CHO–K1 cells [2]; [11],0.31 µM
semaglutide,Loss of lean mass,[9],up to 40 % of total weight lost
"CC(=O)C1=C(O)C=C2Oc3c(C(C)=O)c(O)c(C)c(O)c3[C@@]2(C)C1=O [UsAc, (+)-usnic acid]",Concentrations acutely toxic,rat hepatocytes,"(+)-usnic acid (UsAc) • UsAc has not been tested in mouse models of metabolic disease. Concentrations of 2–5 μM UsAc are acutely toxic to rat hepatocytes [84, 85]. • UsAc is found in the unregulated weight-loss supplement LipoKinetix [86]."
same,Effect of oligomycin on uncoupler-stimulated OCR,CHO–K1 cells [1],largely unaffected by the presence of oligomycin
same,OCR at 31.6 μM,CHO–K1 cells [2],~125 % basal
same,Concentration inducing decline in OCR to sub-basal levels,CHO–K1 cells [2]; after ∼40 min of treatment,over 31.6 μM
same,EC50,"CHO–K1 cells [2]; Cricetulus griseus, 0.4 h",0.43 ± 0.12 µM
"O=C(Nc1ccc([N+](=O)[O-])cc1Cl)c1cc(Cl)ccc1O [NEN, Niclosamide ethanolamine]",Body weight / weight gain vs db/db controls,db/db mice,little impact on body weight
same,"Body weight, food intake, or metabolic tissue weights vs control",db/db mice,not significantly different
same,"Blood glucose, HbA1c, glucose tolerance vs control",db/db mice,did not have significantly lower random-fed or 6-hour fasted blood glucose
same,"Overall metabolic phenotype vs db/db control (Figure 8, words)",db/db mice,no significant changes compared to the db/db control except lower liver weight
same,Liver mass vs db/db control,db/db mice; high dose NTZ,statistically decreased liver mass
same,Daily food intake,db/db mice,restored normal food intake
same,Effect of oligomycin on uncoupler-stimulated OCR,CHO–K1 cells [1],largely unaffected by the presence of oligomycin
same,MaxOCR lower than that seen with BAM15,CHO–K1 cells [2],~25%
same,Concentration range with sustained enhanced OCR (OCR ≥ 150% basal),CHO–K1 cells [2],0.32 µM
same,EC50,CHO–K1 cells [2]; [11],0.09 µM
"CCCCCCCCCCCC[P+](c1ccccc1)(c1ccccc1)c1ccccc1 [C12TPP, Dodecyl-triphenylphosphonium]",Higher OCR in the presence of oligomycin,CHO–K1 cells [1]; initially,~60%
same,Effect of oligomycin on uncoupler-stimulated OCR,CHO–K1 cells [1],largely unaffected by the presence of oligomycin
same,Concentration giving max efficacy / MaxOCR,CHO–K1 cells [2],3.16 µM
same,MaxOCR,CHO–K1 cells [2],~178 % of basal
same,OCR at higher doses,CHO–K1 cells [2]; doses above 3.16 μM,~18 % of baseline
same,EC50,"CHO–K1 cells [2]; Cricetulus griseus, 0.4 h",1.02 ± 0.98 µM
"Cc1c2ccncc2c(C)c2c1[nH]c1ccccc12 [ELL, Ellipticine]",Concentration at which OCR increased above basal levels,CHO–K1 cells [2],> 100 µM
same,MaxOCR,CHO–K1 cells [2],~122 % of basal
liraglutide,Loss of lean mass,[9],up to 60 % of total weight lost
"O=C(Nc1ncc([N+](=O)[O-])s1)c1ccccc1O [TIZ, tizoxanide]",Terminal plasma drug concentration vs in vitro uncoupling range,[10],lower than the concentration at which oxygen consumption rate was enhanced in vitro
"O=C(Nc1cc(Cl)cc(Cl)c1)Nc1cc(Cl)cc(Cl)c1 [SR4, 1,3-bis(3,5-dichlorophenyl)urea]",Concentration at which OCR increased above basal levels,CHO–K1 cells [2],200 µM
same,MaxOCR,CHO–K1 cells [2],~117 % of basal
"CNC(=O)c1cc(Oc2ccc(NC(=O)Nc3ccc(Cl)c(C(F)(F)F)c3)cc2)ccn1 [Sorafenib, 4-[4-({[4-chloro-3 (trifluoromethyl)phenyl]carbamoyl}amino)phenoxy]-N-methylpyridine-2-carboxamide]",Uncoupling activity,"CHO–K1 cells [2]; tested concentration range, 120-minute assay",did not have any uncoupling activity
"CC(C)(C)c1cc(C=C(C#N)C#N)cc(C(C)(C)C)c1O [TyrA9, Tyrphostin A9]",Effect of oligomycin on uncoupler-stimulated OCR,CHO–K1 cells [1],largely unaffected by the presence of oligomycin
same,MaxOCR lower than that seen with BAM15,CHO–K1 cells [2],~140%
same,Concentration range with sustained enhanced OCR (OCR ≥ 150% basal),CHO–K1 cells [2],≤ 100 µM
same,EC50,CHO–K1 cells [2]; [11],0.01 µM
same,EC50,isolated rat hepatocytes,78 µM
